Measured values taken from patent publication US10468120B2, “Method of generating a hyperpigmentation condition gene expression signature” (The Procter & Gamble Company, priority 2012, dated 2019).

Legend:
[1] = test system: Chinese females, 25-55 years old with hyperpigmented spots; assay: 9-week randomized, double-blind, vehicle-controlled, split-face tone benefit study; assay type: in vivo, human; details: 0.05% in SC-99 vehicle, 2x a day, vs vehicle
From the text: This Example provides evidence of the advantages of using composite signatures and illustrates clinical affirmation of the C-map model for predicting efficacy of skin-lightening agents. This Example supports embodiments related to composite signatures (as described at the end of Example 3). An illustrative “Skin Tone” Signature developed from a genomics study using a composite skin-lightening benchmark agent signature is derived from Niacinamide, Hexamidine, Sepiwhite, and NAG. The signature is used to query C-map and generate a list of potential skin-lightening agents. A top hit, Chlorhexidine Diactate (CD) is entered into clinical testing for confirmation of efficacy. The control for clinical efficacy is a 5% Niacinamide+1% Sepiwhite formulation in the control vehicle.
Primary endpoints are changes in color spot area fraction (image analysis) and melanin spot area fraction (NC2) from baseline. Secondary endpoints are changes from baseline in L*a*b (color image analysis), mean melanin gray scale (NC2), and melanin evenness (NC2). Texture area fraction and pore area fraction are also evaluated to explore impact on other aspects relating to overall skin tone. […] Statistically significant superiority to the high efficacy benchmark skin active agent to vehicle performance is the clinical success criteria.
Study Design: The experimental protocol included a 9-week (1-week preconditioning & 8-week treatment), randomized, double-blind, round robin, vehicle-controlled, split-face tone benefit study. The subject population included 330 Chinese females, 25-55 years old with hyperpigmented spots. 318 subjects completed the entire study. […] Olay Complete SPF 15 UV Moisturizing Lotion is concomitantly used during pre-conditioning and treatment. 0.5 g each test product per half-face (forehead to jaw line; ˜4 mg/cm^2) is dosed 2× a day (morning/evening). Color SAF and treatment area, Melanin SAF, gray scale, evenness by NC2, and additional measurement of Fine Lines and Wrinkle and Texture are by REAL 3.01A. Data collection points include baseline, and ends of weeks 4, 6 and 8. The tested hypothesis is that there is no difference in clinical endpoint versus the benchmark composition treatment. Study site is Kuntai Clinical Center, Beijing, China and study time frame is February 2010 (pre-conditioning) to April 2010.

[2] = test system: tert-Keratinocyte (tKC) cells; assay: C-map query with the tone composite benchmark signature (Niacinamide, Hexamidine, Sepiwhite, NAG); assay type: cell-based, human; details: composite signature of Example 3
Protocol: Individual experiments (referred to as batches) generally comprise 30 to 96 samples analyzed using Affymetrix GeneChip® technology platforms, containing 6 replicates of the vehicle control (e.g., DSMO), 2 replicate samples of a positive control that gives a strong reproducible effect in the cell type used, and samples of the test material/perturbagen. Replication of the test material is done in separate batches due to batch effects. In vitro testing was performed in 6-well plates to provide sufficient RNA for GeneChip® analysis (2-4 μg total RNA yield/well).
Human telomerized keratinocytes (tKC) were obtained from the University of Texas, Southwestern Medical Center, Dallas, Tex. tKC cells were grown in EpiLife® media with 1× Human Keratinocyte Growth Supplement (Invitrogen, Carlsbad, Calif.) on collagen I coated cell culture flasks and plates (Becton Dickinson, Franklin Lakes, N.J.). Keratinocytes were seeded into 6-well plates at 20,000 cells/cm^2 24 hours before chemical exposure. Human skin fibroblasts (BJ cell line from ATCC, Manassas, Va.) were grown in Eagle's Minimal Essential Medium (ATCC) supplemented with 10% fetal bovine serum (HyClone, Logan, Utah) in normal cell culture flasks and plates (Corning, Lowell, Mass.). BJ fibroblasts were seeded into 6-well plates at 12,000 cells/cm^2 24 hours before chemical exposure. […]

SMILES: CC(=O)O.CC(=O)O.NC(=N\CCCCCC/N=C(N)/N=C(\N)Nc1ccc(Cl)cc1)/N=C(\N)Nc1ccc(Cl)cc1 [CD, Chlorhexidine Diacetate]
- Basal skin tone ([1]; week 8): demonstrated superiority
- Pore area fraction ([1]; week 8): superior efficacy
- Texture area fraction ([1]; week 8): superior efficacy
- NC2 Melanin evenness test ([1]; weeks 6 and 8): superiority to the vehicle
- spot area fraction NC2 test ([1]; weeks 6 and 8): significantly reduced fraction when compared to the vehicle
- connectivity to the tone composite benchmark signature query [2]: top connectivity hit
